Data on ten compounds can be found in paper PMC6936879, “Inhibiting the copper efflux system in microbes as a novel approach for developing antibiotics” (PLoS ONE, 2019).

The subject of one series is E. coli (BL21). Briefly: Kirby-Bauer test (disc diffusion). Format: cell-based. The note with it: 2 mm radius discs, LB petri dishes, 37 °C overnight. In general terms: A growth-free zone around the sample is the usual read-out of agar diffusion tests.
Series [1] is classed as physicochemical. The conditions noted are these: chemical stability; peptides diluted to 150 mM solution in double-distilled water, incubated at 37 °C for 24 h; ESI-MS spectra before and after incubation. An excerpt:
We hypothesized that peptides would penetrate into E. coli and bind to CusB, interfere with its physiological dimerization, and thereby induce non-physiological structural changes or inhibit physiological structural changes in the transporter in response to extended levels of Cu(I). Thus, E. coli will lose its ability to be protected by copper-mediated oxidative stress, resulting in the death of the bacteria. Unlike CusB, CueO has homologs in human cells (Superoxide dismutase, SOD), and the main role in this study is to affect the CusCFBA efflux system regardless to CueO function, all measurements were carried out with an active CueO. First, we verified whether all ten peptides were stable under physiological conditions via incubation at 37°C for 24 h by ESI-MS analysis (Figs B to D in S1 File). Peptides 2–10 were stable under these given conditions, whereas peptide 1 was unstable.
Validation of the peptides stability using ESI-MS
In order to confirm the stability of the peptides, them were diluted to 150 mM solution in double-distilled
water, then incubated at 37 °C for 24 hr.
S2 before the incubation (Figure S2A) and after the incubation (Figure S2B). All peptides besides pep1
Fig B: ESI-MS. ESI-MS spectra for pep1 and pep2, left panel presents the spectra after peptide
(1 picture or pasted object on this page, not shown here)

Series [2] has as its system E. coli (BL21;DE3). Briefly: E. coli growth rate experiment (O.D. 600 nm) under copper stress. The conditions noted are these: M9 medium, 37 °C, value after 14 h incubation, 5 μM Cu(II) chloride in assay (sentence does not say with or without Cu(II)), mean ± SE, n = 5. It counts as cell-based. As to the method: E. coli (BL21;DE3) growth rates were evaluated in 96-well microplates: in 200 μl of a poor medium comprising M9 medium. Incubation was for 16 h at 37°C with Copper(II) chloride (Sigma-Aldrich, St. Louis, MO, USA) at a concentration of 5 μM. Absorbance at 600 nm was measured every 30 min after stirring for 5 s in a 96-well plate reader (SPL Life Sciences, Gyeonggi, Korea). The buffer background was auto-subtracted. Each experiment was repeated five times under identical conditions.
Next, E. coli were grown in M9 medium for 16 h, and their growth rate was evaluated in the absence and presence of Cu(II) in the medium. In each sample, a different peptide was introduced to the medium, with the kanamycin as a positive control. […] Growth rate values for all peptides at various concentrations after 14 h of incubation are presented in Fig 3 (the growth rate curves are presented in Figs E to F in S1 File).
Fig 3 Effect of test peptides on the E. coli growth rate. E. coli cultures were grown as described in Methods. The growth rate values after a 14 h incubation in the medium in the presence (gray lines) and absence (black lines) of Cu(II). Concentrations of the test peptides: A. 50 μM, B. 75 μM, C. 100 μM, and D. 125 μM. *p < 0.05, MEAN ± SE, n = 5, a comparison between the values in the presence and absence of Cu(II). #p < 0.05, MEAN ± SE, n = 5, in the presence of Cu(II) and comparing between values of a buffer and peptide. t-test was used for the statistic evaluation.

Series [3] has as its system E. coli (BL21;DE3). The series can be described thus: E. coli viability assay (LIVE/DEAD fluorescence imaging). It counts as cell-based. The conditions noted are these: peptide 125 μM; LIVE/DEAD staining, M9 medium, confocal imaging, cell counts with ImageJ; mean ± SE, n = 3. As to the method: E. coli (BL21;DE3) were dyed using the L7007 LIVE/DEAD Bacterial Viability kit (Molecular Probes, Eugene OR, USA); microbes were grown in M9 medium. Images were acquired on a Leica SP8 confocal microscope, running LASX acquisition software. The magnification consisted of a 63 X 1.4 NA objective. Microbes were counted using ImageJ software. Error calculations were based on three repetitions, with each experiment scanned at nine different tiles—all together, 27 repetitions.
Live/dead fluorescence cell imaging experiments were used to indicate bacterial viability when incubated with the peptides. This method also helped to determine whether the decrease in the growth rate described above resulted from deceleration in E. coli growth or its substantial death. E coli were grown to the late […] phase (according to the growth rate lines; Figs B to D in S1 File) in the presence of the peptides in poor medium (M9), which mostly resembles physiological conditions.[52–54] Glucose levels in the growth media were sufficient to prevent bacterial viability loss due to lack of nutrition, yet not too high to positively affect its viability. […] However, the effect of the peptides was not as substantial as the commercially available antibiotic kanamycin. […] 5 ± 4.3% and up to 45.3 ± 4.3% reduction at a concentration of 125 μM.
Fig 4 Effect of the test peptides on E. coli viability. […]

Where [4] appears, read: disc solution 50 µM in 0.85% NaCl.
The mark [5] stands for this setting: disc solution 75 µM in 0.85% NaCl.
The mark [6] stands for this setting: disc solution 100 µM in 0.85% NaCl.
The mark [7] stands for this setting: disc solution 125 µM in 0.85% NaCl.

Take `NC[C@H]1O[C@H](O[C@H]2[C@H](O)[C@@H](O[C@H]3O[C@H](CO)[C@@H](O)[C@H](N)[C@H]3O)[C@H](N)C[C@@H]2N)[C@H](O)[C@@H](O)[C@@H]1O` [Kanamycin, kanamycin, reference compound]: the “r, radius of bacteria killing formed over petri dishes by peptide-solution discs” value with E. coli (BL21) (setting [4]), with E. coli (BL21) (setting [5]), in the series on E. coli (BL21) (setting [6]) and in the series with E. coli (BL21) (setting [7]) was 2.5 mm in each case.
With AKIQGM [pep3], the “r, radius of bacteria killing formed over petri dishes by peptide-solution discs” value in the series with E. coli (BL21) (setting [4]), in the series on E. coli (BL21) (setting [5]), in the series on E. coli (BL21) (setting [6]) and in the series on E. coli (BL21) (setting [7]) was 0 mm in each case.
Take “AKIQGMDPVWVTA [pep1, 13-amino acid parent peptide […] mimicking CusB residues 236-248]”: the “stability under physiological conditions (ESI-MS)” value in series [1] was “unstable”.
As to DPVWVTA [pep4], the “r, radius of bacteria killing formed over petri dishes by peptide-solution discs” value in the series with E. coli (BL21) (setting [4]), in the series on E. coli (BL21) (setting [5]), in the series on E. coli (BL21) (setting [6]) and in the series on E. coli (BL21) (setting [7]) was 0 mm throughout.
Regarding GMDPVW [pep6], the “r, radius of bacteria killing formed over petri dishes by peptide-solution discs” value in the series on E. coli (BL21) (setting [4]), in the series on E. coli (BL21) (setting [5]), in the series with E. coli (BL21) (setting [6]) and with E. coli (BL21) (setting [7]) was 0 mm throughout.
In the case of IQGMD [pep5], the figures for the “decrease in O.D. (600 nm)” value in the series on E. coli (BL21;DE3) [2] (peptide 50 μM) and in the series on E. coli (BL21;DE3) [2] (peptide 100 μM) were 54.5 ± 4.2% and 77.2 ± 6.4%, respectively. The “reduction of bacterial viability” value in the series on E. coli (BL21;DE3) [3] was determined as 45.3 ± 4.3%. In addition, the “r, radius of bacteria killing formed over petri dishes by peptide-solution discs” value worked out at 0 mm in the series on E. coli (BL21) (setting [4]), 0.5 mm in the series on E. coli (BL21) (setting [5]), 1 mm in the series with E. coli (BL21) (setting [6]) and 2 mm with E. coli (BL21) (setting [7]).
Consider KIQGMDPVWVT [pep2], for which the “r, radius of bacteria killing formed over petri dishes by peptide-solution discs” value in the series with E. coli (BL21) (setting [4]), with E. coli (BL21) (setting [5]), with E. coli (BL21) (setting [6]) and in the series with E. coli (BL21) (setting [7]) was 0 mm in each case.
For the compound MDPV [pep9], the “r, radius of bacteria killing formed over petri dishes by peptide-solution discs” value was found to be 0 mm in the series with E. coli (BL21) (setting [4]), 0.5 mm in the series with E. coli (BL21) (setting [5]), 0.5 mm with E. coli (BL21) (setting [6]) and 1.5 mm in the series on E. coli (BL21) (setting [7]).
As to PVWV [pep10], the “r, radius of bacteria killing formed over petri dishes by peptide-solution discs” value in the series on E. coli (BL21) (setting [4]) came to 0 mm; with E. coli (BL21) (setting [5]), 0 mm; in the series with E. coli (BL21) (setting [6]), 0.5 mm; in the series with E. coli (BL21) (setting [7]), 1.5 mm.
Turning to VWVTA [pep7], the “r, radius of bacteria killing formed over petri dishes by peptide-solution discs” value in the series on E. coli (BL21) (setting [4]), in the series on E. coli (BL21) (setting [5]), in the series on E. coli (BL21) (setting [6]) and with E. coli (BL21) (setting [7]) was 0 mm in each case.
